Experimental data published in ChEMBL document CHEMBL1671703, “Bile acids improve the antimicrobial effect of rifaximin” (2010).
Activity calls are given as the source filed them. No cut-off for these calls is given here.

Key:
Escherichia coli [1] = experiment: Antimicrobial activity against Escherichia coli H10407 assessed as decrease in cell density at 16 ug/ml after 4 hrs in presence of 4 mM taurocholic acid; format: functional, ETEC H10407
Escherichia coli [2] = experiment: Decrease in protein expression in Escherichia coli H10407 at 16 ug/ml after 4 hrs; format: functional, ETEC H10407; set-up: scale not given: the % may be the effect or the level left
Escherichia coli [3] = experiment: Antimicrobial activity against Escherichia coli H10407 assessed as decrease in cell density at 16 ug/ml after 4 hrs in presence of 4 mM glycocholic acid; format: functional, ETEC H10407
Escherichia coli [4] = experiment: Antimicrobial activity against Escherichia coli H10407 assessed as decrease in cell density at 16 ug/ml after 4 hrs in presence of 4 mM pooled synthetic bile acid; format: functional, ETEC H10407
Escherichia coli [5] = experiment: Antimicrobial activity against Escherichia coli H10407 assessed as decrease in cell density at 16 ug/ml after 4 hrs in presence of 4 mM human bile acid; format: functional, ETEC H10407
Escherichia coli [6] = experiment: Antimicrobial activity against Escherichia coli H10407 assessed as growth inhibition at 16 ug/ml; format: functional; conditions: ETEC H10407
Escherichia coli [7] = experiment: Antimicrobial activity against Escherichia coli H10407 assessed as decrease in cell density at 16 ug/ml after 4 hrs in presence of 4 mM deoxycholic acid; format: functional, ETEC H10407
Escherichia coli [8] = experiment: Antimicrobial activity against Escherichia coli H10407 assessed as decrease in cell density at 16 ug/ml after 4 hrs in presence of 4 mM lithocholic acid; format: functional, ETEC H10407
Escherichia coli [9] = experiment: Inhibition of RNA synthesis in Escherichia coli H10407 assessed as inhibition of beta-galactosidase expression at 8 ug/ml in presence of 4 mM bile acid; format: functional, ETEC H10407
Escherichia coli [10] = experiment: Inhibition of RNA synthesis in Escherichia coli H10407 assessed as inhibition of beta-galactosidase expression at 32 ug/ml in presence of 4 mM bile acid; format: functional, ETEC H10407
Escherichia coli [11] = experiment: Antimicrobial activity against Escherichia coli H10407 assessed as decrease in cell density at 16 ug/ml after 4 hrs; format: functional; conditions: ETEC H10407
Escherichia coli [12] = experiment: Antimicrobial activity against Escherichia coli H10407 assessed as decrease in cell density at 16 ug/ml after 4 hrs in presence of 4 mM chenodeoxycholic acid; format: functional, ETEC H10407
Escherichia coli [13] = experiment: Bacteriostatic activity against Escherichia coli H10407 at 8 ug/ml in presence of bile acid relative to absence of bile acid; format: functional, ETEC H10407
Escherichia coli [14] = experiment: Antimicrobial activity against Escherichia coli H10407 assessed as decrease in cell density at 16 ug/ml after 4 hrs in presence of 4 mM cholic acid; format: functional, ETEC H10407
Escherichia coli [15] = experiment: Inhibition of RNA synthesis in Escherichia coli H10407 assessed as inhibition of beta-galactosidase expression at 16 ug/ml in presence of […] bile acid; format: functional, ETEC H10407
Escherichia coli [16] = experiment: Bacteriostatic activity against Escherichia coli H10407 at 16 ug/ml in presence of bile acid relative to absence of bile acid; format: functional, ETEC H10407
Escherichia coli [17] = experiment: Inhibition of RNA synthesis in Escherichia coli H10407 assessed as inhibition of beta-galactosidase expression relative to control; format: functional; conditions: ETEC H10407

CO[C@H]1/C=C/O[C@@]2(C)Oc3c(C)c(O)c4c(O)c(c5c(nc6cc(C)ccn65)c4c3C2=O)NC(=O)/C(C)=C\C=C\[C@H](C)[C@H](O)[C@@H](C)[C@@H](O)[C@@H](C)[C@H](OC(C)=O)[C@@H]1C [RIFAXIMIN]
inhibition (INH) (Escherichia coli [1]): 77.6%
Activity (Escherichia coli [2]): 59%
inhibition (INH) (Escherichia coli [3]): 80.8%
inhibition (INH) (Escherichia coli [4]): 70.6%
inhibition (INH) (Escherichia coli [5]): 72.8%
inhibition (Escherichia coli [6]): Active
inhibition (INH) (Escherichia coli [7]): 93.8%
inhibition (INH) (Escherichia coli [8]): 43.9%
inhibition (INH) (Escherichia coli [9]): 33%
inhibition (INH) (Escherichia coli [10]): 82%
Activity (Escherichia coli [11]): Active
inhibition (INH) (Escherichia coli [12]): 89.2%
fold change (FC) (Escherichia coli [13]): 2
inhibition (INH) (Escherichia coli [14]): 95.5%
inhibition (INH) (Escherichia coli [15]): 49%
fold change (FC) (Escherichia coli [16]): 5.5
inhibition (Escherichia coli [17]): Active
